Data: ChEMBL document CHEMBL4806959, “Antagonistic peptides for frizzled-1 and frizzled-2” (2015)
Calls of active or inactive are those of the source. The calls are words filed in the database; no cut-off is given here. Positions of bridges follow the written chain, without caps; N, C: chain ends. Residues, ends and D or L forms follow the SMILES beside them.

Tests used:
[1] = tested on: Mus musculus; assay: Cardioprotective activity against myocardial infarction Swiss mouse model assessed as increase in ejection fraction at 6 ug/kg/day, sc via osmotic pumps for 5 weeks by echocardiographic analysis relative to control; type: functional; conditions: dose 6 µg/kg/day
[2] = target: Frizzled-2 (Mus musculus) (UniProt Q9JIP6); assay: Antagonist activity at Wnt3a-stimulaed mouse frizzled-2 expressed in human HEK293superTOP flash cells incubated for 24 hrs by luciferase reporter gene assay; type: cell-based; conditions: HEK293, filed as antagonist
[3] = tested on: Mus musculus; assay: Cardioprotective activity against myocardial infarction Swiss mouse model assessed as reduction in infarct area in heart at 6 ug/kg/day, sc via osmotic pumps for 2 to 5 weeks by immunohistochemical staining analysis; type: functional, organism-based; conditions: dose 6.0 µg/kg/day, time 2-5 weeks
[4] = target: Frizzled-5 (Homo sapiens) (UniProt Q13467); assay: Antagonist activity at Wnt3a-stimulaed human frizzled-5 expressed in human HEK293superTOP flash cells at 10 nM incubated for 24 hrs by luciferase reporter gene assay; type: functional, cell-based; conditions: HEK293
[5] = tested on: Mus musculus; assay: Cardioprotective activity against myocardial infarction Swiss mouse model assessed as increase in alpha-SMA protein expression in heart at 6 ug/kg/day, sc via osmotic pumps for 5 weeks by western blot analysis; type: functional, organism-based; conditions: dose 6.0 µg/kg/day
[6] = target: T1, Frizzled-2 (Homo sapiens, UniProt Q14332); assay: Antagonist activity at Wnt3a-stimulaed human frizzled-2 expressed in human HEK293superTOP flash cells incubated for 24 hrs by luciferase reporter gene assay; type: functional, cell-based; conditions: HEK293, filed as antagonist
[7] = tested on: Mus musculus; assay: Cardioprotective activity against myocardial infarction Swiss mouse model assessed as increase in alpha-SMA gene expression in heart at 6 ug/kg/day, sc via osmotic pumps for 5 weeks by qPCR analysis; type: functional, organism-based; conditions: dose 6.0 µg/kg/day
[8] = tested on: Mus musculus; assay: Cardioprotective activity against myocardial infarction Swiss mouse model assessed as ESV_L at 6 ug/kg/day, sc via osmotic pumps for 5 weeks by echocardiographic analysis (reference value: 0.179 +/-0.007 cm3); type: functional; conditions: dose 6 µg/kg/day
[9] = target: Frizzled-2 (Rattus norvegicus) (UniProt Q08464); assay: Agonist activity at rat frizzled-2 expressed in CHO cells by luciferase reporter gene assay; type: cell-based
[10] = tested on: Mus musculus; assay: Cardioprotective activity against myocardial infarction Swiss mouse model assessed as reduction in collagen level in infarct area at 6 ug/kg/day, sc via osmotic pumps for 5 weeks by immunohistochemical staining analysis; type: functional, organism-based; conditions: dose 6.0 µg/kg/day
[11] = tested on: Mus musculus; assay: Cardioprotective activity against myocardial infarction Swiss mouse model assessed as reduction in wet lung weight at 6 ug/kg/day, sc via osmotic pumps for 5 weeks; type: functional, organism-based; conditions: dose 6.0 µg/kg/day
[12] = tested on: Mus musculus; assay: Cardioprotective activity against myocardial infarction Swiss mouse model assessed as SV_L at 6 ug/kg/day, sc via osmotic pumps for 5 weeks by echocardiographic analysis (reference value: 0.035 +/-0.005 cm3); type: functional; conditions: dose 6 µg/kg/day
[13] = target: Frizzled-5 (Homo sapiens) (UniProt Q13467); assay: Antagonist activity at Wnt3a-stimulaed frizzled-5 (unknown origin) expressed in human HEK293superTOP flash cells incubated for 24 hrs by luciferase reporter gene assay; type: functional, cell-based; conditions: HEK293
[14] = tested on: Mus musculus; assay: Cardioprotective activity against myocardial infarction Swiss mouse model assessed as LVAs at 6 ug/kg/day, sc via osmotic pumps for 5 weeks by echocardiographic analysis (reference value: 0.44 +/-0.01 cm2); type: functional; conditions: dose 6 µg/kg/day
[15] = tested on: Mus musculus; assay: Cardioprotective activity against myocardial infarction Swiss mouse model assessed as animal mortality at 6 ug/kg/day, sc via osmotic pumps for 5 weeks (reference value: 35%); type: functional; conditions: 840 h, at 6 µg/kg/day
[16] = target: Frizzled-2 (Rattus norvegicus) (UniProt Q08464); assay: Agonist activity at rat frizzled-2 expressed in African green monkey COS7 cells by luciferase reporter gene assay; type: cell-based
[17] = target: Frizzled-1 (Rattus norvegicus) (UniProt Q08463); assay: Agonist activity at rat frizzled-1 expressed in African green monkey COS7 cells by luciferase reporter gene assay; type: cell-based
[18] = target: T2, Frizzled-4 (Homo sapiens) (UniProt Q9ULV1); assay: Antagonist activity at Wnt3a-stimulaed human frizzled-4 expressed in human HEK293superTOP flash cells at 10 nM incubated for 24 hrs by luciferase reporter gene assay; type: functional, cell-based; conditions: HEK293
T2 sequence (whole entry): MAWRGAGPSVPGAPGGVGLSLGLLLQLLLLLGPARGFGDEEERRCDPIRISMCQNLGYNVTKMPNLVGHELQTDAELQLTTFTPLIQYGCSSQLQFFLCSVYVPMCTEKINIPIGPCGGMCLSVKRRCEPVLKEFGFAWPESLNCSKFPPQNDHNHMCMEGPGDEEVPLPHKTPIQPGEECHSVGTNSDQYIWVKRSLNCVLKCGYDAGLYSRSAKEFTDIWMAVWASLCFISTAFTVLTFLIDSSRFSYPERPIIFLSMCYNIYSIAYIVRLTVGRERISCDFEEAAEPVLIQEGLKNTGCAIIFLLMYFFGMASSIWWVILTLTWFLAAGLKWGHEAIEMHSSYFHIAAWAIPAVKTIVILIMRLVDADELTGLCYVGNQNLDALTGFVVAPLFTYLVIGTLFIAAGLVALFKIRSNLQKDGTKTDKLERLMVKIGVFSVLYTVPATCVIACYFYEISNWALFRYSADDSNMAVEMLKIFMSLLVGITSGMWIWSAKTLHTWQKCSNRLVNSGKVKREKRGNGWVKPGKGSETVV

[19] = target: Frizzled-1 (Rattus norvegicus) (UniProt Q08463); assay: Agonist activity at rat frizzled-1 expressed in human HEK293superTOP flash cells by luciferase reporter gene assay; type: cell-based; conditions: HEK293
[20] = tested on: Mus musculus; assay: Cardioprotective activity against myocardial infarction Swiss mouse model assessed as ventricular dilation at 6 ug/kg/day, sc via osmotic pumps for 5 weeks by macroscopic analysis; type: functional, organism-based; conditions: dose 6.0 µg/kg/day
[21] = target: T1, Frizzled-2; assay: Antagonist activity at frizzled-2 (unknown origin) expressed in human HEK293superTOP flash cells incubated for 24 hrs by luciferase reporter gene assay; type: functional, cell-based; conditions: HEK293
[22] = target: Frizzled-1 (Homo sapiens) (UniProt Q9UP38); assay: Antagonist activity at Wnt3a-stimulaed human frizzled-1 expressed in human HEK293superTOP flash cells incubated for 24 hrs by luciferase reporter gene assay; type: functional, cell-based; conditions: HEK293, filed as antagonist
[23] = target: Frizzled-1 (Mus musculus) (UniProt O70421); assay: Antagonist activity at Wnt3a-stimulaed mouse frizzled-1 expressed in human HEK293superTOP flash cells incubated for 24 hrs by luciferase reporter gene assay; type: cell-based; conditions: HEK293, filed as antagonist
[24] = tested on: Mus musculus; assay: Cardioprotective activity against myocardial infarction Swiss mouse model assessed as increase in myofibroblast number at 6 ug/kg/day, sc via osmotic pumps for 5 weeks by immunohistochemical staining analysis; type: functional, organism-based; conditions: dose 6.0 µg/kg/day
[25] = tested on: Mus musculus; assay: Cardioprotective activity against myocardial infarction Swiss mouse model assessed as ratio of maximum positive slope to pressure of positive slope at 6 ug/kg/day, sc via osmotic pumps for 5 weeks by Millar pressure recording based analysis (reference value: 43.78 +/-1.93 1/sec); type: functional; conditions: dose 6 µg/kg/day
[26] = target: Frizzled-2 (Rattus norvegicus) (UniProt Q08464); assay: Agonist activity at rat frizzled-2 expressed in human HEK293superTOP flash cells by luciferase reporter gene assay; type: cell-based; conditions: HEK293
[27] = tested on: Mus musculus; assay: Cardioprotective activity against myocardial infarction Swiss mouse model assessed as increase in myofibroblast number at 6 ug/kg/day, sc via osmotic pumps for 2 weeks by immunohistochemical staining analysis relative to control; type: functional; conditions: dose 6 µg/kg/day
[28] = tested on: Mus musculus; assay: Cardioprotective activity against myocardial infarction Swiss mouse model assessed as LVAd at 6 ug/kg/day, sc via osmotic pumps for 5 weeks by echocardiographic analysis (reference value: 0.5 +/-0.01 cm2); type: functional; conditions: dose 6 µg/kg/day
[29] = species: Rattus norvegicus; assay: Selectivity index, ratio of IC50 for Wnt3a-stimulated rat frizzled-1 expressed in human HEK293superTOPFlash cells to IC50 for Wnt3a-stimulated rat frizzled-2 expressed in human HEK293superTOPFlash cells; type: cell-based
[30] = target: Frizzled-1 (Rattus norvegicus) (UniProt Q08463); assay: Agonist activity at rat frizzled-1 expressed in CHO cells by luciferase reporter gene assay; type: cell-based
[31] = tested on: Mus musculus; assay: Cardioprotective activity against myocardial infarction Swiss mouse model assessed as ratio of maximum negative slope to pressure of negative slope at 6 ug/kg/day, sc via osmotic pumps for 5 weeks by Millar pressure recording based analysis (reference value: 33.29 +/-1.14 1/sec); type: functional; conditions: dose 6 µg/kg/day
[32] = target: T2, Frizzled-4 (Homo sapiens); assay: Antagonist activity at Wnt3a-stimulaed frizzled-4 (unknown origin) expressed in human HEK293superTOP flash cells incubated for 24 hrs by luciferase reporter gene assay; type: functional, cell-based; conditions: HEK293
[33] = target: T1, Frizzled-2; assay: Antagonist activity at Wnt3a-stimulated frizzled-2 (unknown origin) expressed in human HEK293superTOP flash cells incubated for 24 hrs by luciferase reporter gene assay; type: functional, cell-based; conditions: HEK293, filed as antagonist
[34] = tested on: Mus musculus; assay: Cardioprotective activity against myocardial infarction Swiss mouse model assessed as reduction in infarction expansion in heart at 6 ug/kg/day, sc via osmotic pumps for 5 weeks by macroscopic analysis; type: functional, organism-based; conditions: dose 6.0 µg/kg/day
[35] = tested on: Mus musculus; assay: Cardioprotective activity against myocardial infarction Swiss mouse model assessed as increase in infarct area thickness in heart at 6 ug/kg/day, sc via osmotic pumps for 2 to 5 weeks by immunohistochemical staining analysis; type: functional, organism-based; conditions: dose 6.0 µg/kg/day, time 2-5 weeks
[36] = tested on: Mus musculus; assay: Cardioprotective activity against myocardial infarction Swiss mouse model assessed as EDV_L at 6 ug/kg/day, sc via osmotic pumps for 5 weeks by echocardiographic analysis (reference value: 0.214 +/-0.02 cm3); type: functional; conditions: dose 6 µg/kg/day
[37] = tested on: Mus musculus; assay: Cardioprotective activity against myocardial infarction Swiss mouse model assessed as increase in amount of blood vessels in heart at 6 ug/kg/day, sc via osmotic pumps for 5 weeks by immunohistochemical staining analysis; type: functional, organism-based; conditions: dose 6.0 µg/kg/day
[38] = target: T2, Frizzled-4 (Homo sapiens); assay: Agonist activity at frizzled-4 (unknown origin) expressed in human HEK293superTOP flash cells by luciferase reporter gene assay; type: functional, cell-based; conditions: HEK293
[39] = target: Frizzled-5 (Homo sapiens) (UniProt Q13467); assay: Agonist activity at frizzled-5 (unknown origin) expressed in human HEK293superTOP flash cells by luciferase reporter gene assay; type: functional, cell-based; conditions: HEK293

T1 sequence (Q14332 24-565 limits assumed): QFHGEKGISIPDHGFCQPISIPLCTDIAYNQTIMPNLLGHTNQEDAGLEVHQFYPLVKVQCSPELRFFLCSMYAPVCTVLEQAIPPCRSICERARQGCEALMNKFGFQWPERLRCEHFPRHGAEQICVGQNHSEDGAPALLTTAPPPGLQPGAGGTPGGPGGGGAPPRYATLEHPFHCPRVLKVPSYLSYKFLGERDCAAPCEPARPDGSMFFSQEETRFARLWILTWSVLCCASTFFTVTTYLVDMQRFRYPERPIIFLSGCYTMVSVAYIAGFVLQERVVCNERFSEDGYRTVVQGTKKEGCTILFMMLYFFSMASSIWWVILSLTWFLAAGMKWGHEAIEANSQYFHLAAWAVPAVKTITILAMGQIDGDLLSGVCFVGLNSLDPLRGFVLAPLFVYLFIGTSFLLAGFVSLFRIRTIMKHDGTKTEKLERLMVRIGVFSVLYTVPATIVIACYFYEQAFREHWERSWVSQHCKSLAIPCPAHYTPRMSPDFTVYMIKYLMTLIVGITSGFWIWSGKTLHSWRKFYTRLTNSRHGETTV
Frizzled-1 (Rattus norvegicus), sequence (Q08463 whole entry): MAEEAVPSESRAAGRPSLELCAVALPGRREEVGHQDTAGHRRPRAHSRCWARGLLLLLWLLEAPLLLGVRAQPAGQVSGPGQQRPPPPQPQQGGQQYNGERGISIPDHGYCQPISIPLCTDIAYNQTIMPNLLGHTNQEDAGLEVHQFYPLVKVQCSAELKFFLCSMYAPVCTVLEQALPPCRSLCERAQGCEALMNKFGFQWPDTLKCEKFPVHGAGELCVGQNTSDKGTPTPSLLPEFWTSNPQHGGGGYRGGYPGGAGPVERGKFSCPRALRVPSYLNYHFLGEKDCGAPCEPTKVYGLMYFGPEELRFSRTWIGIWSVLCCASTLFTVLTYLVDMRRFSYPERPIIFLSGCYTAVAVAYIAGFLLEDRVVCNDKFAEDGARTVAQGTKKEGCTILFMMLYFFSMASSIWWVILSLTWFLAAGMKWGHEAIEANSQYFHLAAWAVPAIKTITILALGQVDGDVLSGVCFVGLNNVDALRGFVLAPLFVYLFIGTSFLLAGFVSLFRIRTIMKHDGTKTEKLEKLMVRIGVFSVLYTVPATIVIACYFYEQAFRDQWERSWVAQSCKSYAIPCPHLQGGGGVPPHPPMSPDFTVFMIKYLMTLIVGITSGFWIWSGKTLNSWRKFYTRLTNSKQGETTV
Frizzled-2 (Rattus norvegicus), sequence (Q08464 29-570 limits assumed): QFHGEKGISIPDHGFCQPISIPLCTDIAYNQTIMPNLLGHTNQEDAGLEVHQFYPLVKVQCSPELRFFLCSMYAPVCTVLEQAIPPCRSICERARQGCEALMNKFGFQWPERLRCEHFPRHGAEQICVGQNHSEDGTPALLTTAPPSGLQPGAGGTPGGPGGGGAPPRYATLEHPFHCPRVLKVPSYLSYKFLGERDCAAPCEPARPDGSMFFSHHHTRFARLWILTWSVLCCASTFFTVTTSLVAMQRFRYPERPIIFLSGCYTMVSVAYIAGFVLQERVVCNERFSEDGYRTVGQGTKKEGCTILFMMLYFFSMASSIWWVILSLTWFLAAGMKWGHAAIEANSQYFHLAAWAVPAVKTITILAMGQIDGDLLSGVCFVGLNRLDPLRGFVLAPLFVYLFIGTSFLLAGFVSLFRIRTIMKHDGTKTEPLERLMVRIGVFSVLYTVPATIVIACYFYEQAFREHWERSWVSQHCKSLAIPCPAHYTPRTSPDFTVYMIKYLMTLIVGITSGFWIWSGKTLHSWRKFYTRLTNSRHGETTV
Frizzled-5 (Homo sapiens), sequence (Q13467 whole entry): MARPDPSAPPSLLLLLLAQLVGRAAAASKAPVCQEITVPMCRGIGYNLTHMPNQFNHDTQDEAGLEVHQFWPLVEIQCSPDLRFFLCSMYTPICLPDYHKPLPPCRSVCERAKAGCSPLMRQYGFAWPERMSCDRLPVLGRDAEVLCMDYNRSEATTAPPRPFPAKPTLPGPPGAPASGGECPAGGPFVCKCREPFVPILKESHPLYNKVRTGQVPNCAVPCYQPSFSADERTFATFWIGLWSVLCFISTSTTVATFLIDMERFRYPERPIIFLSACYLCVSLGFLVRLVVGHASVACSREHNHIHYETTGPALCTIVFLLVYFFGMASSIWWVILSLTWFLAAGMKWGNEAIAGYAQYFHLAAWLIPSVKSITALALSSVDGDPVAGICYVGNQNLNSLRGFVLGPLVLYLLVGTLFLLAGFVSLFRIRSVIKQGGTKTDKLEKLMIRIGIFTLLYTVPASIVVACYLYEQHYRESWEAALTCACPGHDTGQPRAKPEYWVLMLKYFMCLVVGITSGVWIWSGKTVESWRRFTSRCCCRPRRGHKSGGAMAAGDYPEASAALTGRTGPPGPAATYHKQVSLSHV
Frizzled-1 (Homo sapiens), sequence (Q9UP38 70-647 limits assumed): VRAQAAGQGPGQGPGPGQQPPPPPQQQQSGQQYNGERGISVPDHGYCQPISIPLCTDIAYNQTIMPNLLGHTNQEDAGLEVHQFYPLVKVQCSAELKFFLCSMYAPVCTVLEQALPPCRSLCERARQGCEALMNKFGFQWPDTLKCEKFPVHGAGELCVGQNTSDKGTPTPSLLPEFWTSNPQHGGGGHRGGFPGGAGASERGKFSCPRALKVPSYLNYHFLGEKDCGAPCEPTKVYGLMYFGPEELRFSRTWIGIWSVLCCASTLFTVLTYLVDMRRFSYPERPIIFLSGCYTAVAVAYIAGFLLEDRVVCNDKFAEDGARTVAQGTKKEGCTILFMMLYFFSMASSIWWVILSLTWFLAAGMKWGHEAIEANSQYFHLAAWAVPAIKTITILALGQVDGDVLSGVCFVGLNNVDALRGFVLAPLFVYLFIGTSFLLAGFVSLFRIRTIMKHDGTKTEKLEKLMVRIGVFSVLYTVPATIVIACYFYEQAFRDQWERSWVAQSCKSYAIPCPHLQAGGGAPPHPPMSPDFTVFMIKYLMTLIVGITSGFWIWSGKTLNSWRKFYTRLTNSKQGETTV
Frizzled-2 (Mus musculus), sequence (Q9JIP6 whole entry, looked up): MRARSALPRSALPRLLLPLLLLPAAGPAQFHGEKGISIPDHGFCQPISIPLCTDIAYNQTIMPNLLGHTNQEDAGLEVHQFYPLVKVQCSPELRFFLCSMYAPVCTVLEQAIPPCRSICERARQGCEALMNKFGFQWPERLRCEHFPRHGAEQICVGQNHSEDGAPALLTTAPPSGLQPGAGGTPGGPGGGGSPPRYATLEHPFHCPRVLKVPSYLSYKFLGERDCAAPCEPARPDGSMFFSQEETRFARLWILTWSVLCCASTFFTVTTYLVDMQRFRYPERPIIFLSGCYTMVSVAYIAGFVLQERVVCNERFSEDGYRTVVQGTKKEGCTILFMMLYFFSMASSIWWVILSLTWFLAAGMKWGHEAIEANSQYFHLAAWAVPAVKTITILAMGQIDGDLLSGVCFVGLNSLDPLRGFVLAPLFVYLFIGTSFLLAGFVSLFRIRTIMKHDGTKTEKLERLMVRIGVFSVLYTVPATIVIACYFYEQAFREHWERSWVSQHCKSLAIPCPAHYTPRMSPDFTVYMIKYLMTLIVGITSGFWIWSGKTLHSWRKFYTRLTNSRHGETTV
Frizzled-1 (Mus musculus), sequence (O70421 whole entry, looked up): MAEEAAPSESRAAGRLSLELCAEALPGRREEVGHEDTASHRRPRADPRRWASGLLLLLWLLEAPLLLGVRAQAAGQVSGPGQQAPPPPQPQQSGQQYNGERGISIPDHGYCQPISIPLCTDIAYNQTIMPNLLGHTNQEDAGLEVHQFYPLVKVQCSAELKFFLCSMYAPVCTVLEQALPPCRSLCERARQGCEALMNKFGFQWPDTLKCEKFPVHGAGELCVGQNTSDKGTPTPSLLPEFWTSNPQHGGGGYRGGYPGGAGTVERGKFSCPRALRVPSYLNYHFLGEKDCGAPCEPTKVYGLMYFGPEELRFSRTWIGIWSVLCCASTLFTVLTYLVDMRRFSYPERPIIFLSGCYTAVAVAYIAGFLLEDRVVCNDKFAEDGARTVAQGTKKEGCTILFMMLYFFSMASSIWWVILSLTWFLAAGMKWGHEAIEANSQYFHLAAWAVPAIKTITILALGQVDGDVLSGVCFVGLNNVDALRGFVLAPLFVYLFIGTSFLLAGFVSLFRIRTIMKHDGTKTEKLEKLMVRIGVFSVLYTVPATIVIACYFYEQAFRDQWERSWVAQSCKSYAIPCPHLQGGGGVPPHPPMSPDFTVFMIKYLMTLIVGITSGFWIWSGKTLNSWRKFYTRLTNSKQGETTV

CSCC[C@H](NC(=O)CNC(=O)[C@H](CCC(=O)O)NC(=O)[C@H](CO)NC(=O)[C@@H](NC(=O)[C@H](CCCCN)NC(=O)[C@H](CC(N)=O)NC(=O)[C@H](CS)NC(C)=O)[C@@H](C)O)C(=O)N[C@@H](CC(=O)O)C(=O)NCC(=O)N[C@@H](CS)C(=O)N[C@@H](CCC(=O)O)C(=O)N[C@@H](CC(C)C)C(N)=O (Ac-CNKTSEGMDGCEL-NH2)
fold change (FC) [1]: 2
inhibition [2]: Active
Activity [3]: Active
inhibition [4]: inactive
Activity [5]: Active
inhibition [6]: Active
Activity [7]: Active
Activity [8]: 0.09 cm3
Activity [9]: inactive
Activity [10]: Active
Activity [11]: Active
Activity [12]: 0.041 cm3
inhibition [13]: inactive
Activity [14]: 0.3 cm2
mortality at 0.006 mg/kg/day [15]: 0%
Activity [16]: inactive
Activity [17]: inactive
inhibition [18]: inactive
Activity [19]: inactive
Activity [20]: Active
inhibition [21]: inactive
inhibition [22]: Active
inhibition [23]: Active
Activity [24]: Active
Activity [25]: 69.13 s⁻¹
Activity [26]: inactive
fold change (FC) [27]: >4
Activity [28]: 0.38 cm2
Ratio IC50 [29]: 100
Activity [30]: inactive
Activity [31]: 32.84 s⁻¹
inhibition [32]: inactive
inhibition [33]: Dose-Dependent Effect
Activity [34]: Active
Activity [35]: Active
Activity [36]: 0.132 cm3
Activity [37]: Active

CSCC[C@@H]1NC(=O)CNC(=O)[C@H](CCC(=O)O)NC(=O)[C@H](CO)NC(=O)[C@H]([C@@H](C)O)NC(=O)[C@H](CCCCN)NC(=O)[C@H](CC(N)=O)NC(=O)[C@@H](NC(C)=O)CSSC[C@@H](C(=O)N[C@@H](CCC(=O)O)C(=O)N[C@@H](CC(C)C)C(N)=O)NC(=O)CNC(=O)[C@H](CC(=O)O)NC1=O (Ac-CNKTSEGMDGCEL-NH2; disulfide 1-11)
Activity [38]: inactive
Activity [39]: inactive
